Reference: patent publication US9169268B2, “Use of 7-alkoxy fangchinoline compounds in preventing, alleviating and/or treating depression” (Peking University, priority 2012, dated 2015)

Tests used:
GSK-3β = GSK-3β (Homo sapiens, UniProt P49841); test: GSK-3β activity assay (Z′-LYTE); assay type: biochemical; details: n = 3; read-out: Mean EC50 in the inhibition of GSK-3β activity
Experimental: The GSK-3β phosphorylation level was determined by using a Z′-LYTE assay (Life Technologies). The assay was performed in a 384-well plate. The wells of the testing plate were divided into blank control wells (without the enzyme), enzyme control wells (without the testing substance), and testing wells (with the enzyme and the testing substance at various concentrations). The inhibition rate of the testing substance is expressed as: inhibition %=(E−S)/(E−B)×100, wherein E is the average emission ratio of enzyme control wells; B is the average emission ratio of blank control wells; S is the emission ratio of the testing sample wells. The median effective concentration of each compound (EC50 μM) was calculated by using the resultant inhibition rate of each sample at various concentrations.

[1] = test system: chronic unpredictable stress (CUS) model in rats; test: Sucrose solution preference in CUS model in rats; assay type: in vivo; details: 7 days
Experimental: (§1) The chronic unpredictable stress model is usually used as a depression model. The experimental method is as follows. Stimulation includes forced swimming (10° C., 6 min), tail clamping (1 cm from the tail tip, 1 min), water deprivation (24 h), fasting (24 h), isolated housing (24 h), tail suspension (1 h), immobility (2 h), high-speed horizontal oscillation (120 times/min, 1 h), foot shock for 45 minutes (mean 1 mA, time course 1 s, once/min). These stressors were randomly scheduled over a one-week period and repeated throughout the 23-day experiment. The non-stress control group was housed under normal conditions. Time: between 9:00 a.m. and 2:00 p.m. Since Day 15, the animals in each group were daily intragastrically administered with the subject medicament and double distilled water based on body weight (blank group and CUS model group) respectively, 60 minutes before the stress. […] Behavior and sleep electroencephalogram analyses were carried out on Day 22-23 of the stress. On Day 21, 60 minutes after the final administration, a sucrose solution intake test was carried out and sleep electroencephalogram was recorded simultaneously. On Day 22, EPM and forced swimming tests were carried out.

[2] = test system: chronic unpredictable stress (CUS) model in rats; test: Autonomous movement in CUS model in rats; assay type: in vivo; details: 7 days
Experimental: as §1

[3] = test system: chronic unpredictable stress (CUS) model in rats; test: Elevated plus-maze (EPM) anxiety test in CUS model in rats; assay type: in vivo
Experimental: as §1

[4] = test system: chronic unpredictable stress (CUS) model in rats; test: Sleep electroencephalogram in CUS depression model in rats; assay type: in vivo
Experimental: The chronic unpredictable stress model is usually used as a depression model. The experimental method is as follows. Stimulation includes forced swimming (10° C., 6 min), tail clamping (1 cm from the tail tip, 1 min), water deprivation (24 h), fasting (24 h), isolated housing (24 h), tail suspension (1 h), immobility (2 h), high-speed horizontal oscillation (120 times/min, 1 h), foot shock for 45 minutes (mean 1 mA, time course 1 s, once/min). These stressors were randomly scheduled over a one-week period and repeated throughout the 23-day experiment. The non-stress control group was housed under normal conditions. Time: between 9:00 a.m. and 2:00 p.m. Since Day 15, the animals in each group were daily intragastrically administered with the subject medicament and double distilled water based on body weight (blank group and CUS model group) respectively, 60 minutes before the stress. Imipramine (intraperitoneally, IP) was adopted as a positive control. Behavior and sleep electroencephalogram analyses were carried out on Day 22-23 of the stress. On Day 21, 60 minutes after the final administration, a sucrose solution intake test was carried out and sleep electroencephalogram was recorded simultaneously. On Day 22, EPM and forced swimming tests were carried out.
Result 3: Sleep disturbance is one of the most common symptoms of neuropsychiatry. From a view of therapeutics, sleep disturbance is one of the most distressful events in patients suffered from nervous diseases and mental illness, especially in depression, and also one of major adverse events that may exacerbate the conditions of nervous disease and mental illness and impede the recovery in patients. For example, patients who are suffering from depression associated with insomnia may have an apparently higher incidence of a suicidal behavior, as compared with a non-insomnia group. Sleep disturbance in nervous and mental diseases can be simulated by using a CUS model in rats. […] Therefore, YH-200 could be useful for treating and ameliorating sleep disturbance in a patient suffering from depression (see, Table 4).

[5] = test system: GSK-3β phosphorylation level; test: GSK-3β phosphorylation level in mouse brain regions (Western blot); assay type: in vivo; details: mice
Experimental: ICR mice were intragastrically administered of subject medicaments and vehicle. One hour later, brains of those treated mice were obtained after decapitation. Prefrontal lobe cortex, hipocampus, corpus striatum and hypothalamus were isolated and collected respectively. Then protein electrophoresis (Western blot) was carried out with each sample.

[6] = test system: forced swimming model in mice; test: Forced swimming model in mice; assay type: in vivo
Experimental: A desperate behavior status of human beings may be simulated by an immobility status in a forced swimming model in mice. The mice were put into a cylindrical glass jar (height 20 cm, diameter 10 cm) with a water depth of 15 cm and water temperature of 25±1° C. The mice were allowed to pre-swim for 15 minutes before the experiment, and then were taken out, wiped dry at a warm place, and sent back into cages. In 24 hours, the mice received an intragastric administration; and 60 minutes after the administration, the mice were put into the above-mentioned environment. The accumulative immobility time of the mice in the jar during the 5-minute period of time after six minutes of swimming was measured. A decrease in immobility time was taken as evaluation index.

[7] = Serum AST and ALT in mice after 14 days of intragastric administration; assay type: in vivo; details: mouse, in vivo, 60 mg/kg/day
Experimental: Blood was collected from epicanthal, stood at room temperature for about 2 hours, and centrifuged for 12 minutes at 3000 r/min after coagulation. The serum was removed and centrifuged again. Alanine transaminase (ALT) and aspartate transaminase (AST) levels were determined

[8] = Day 0 (baseline, before dosing)

Sequence of GSK-3β (P49841 whole entry): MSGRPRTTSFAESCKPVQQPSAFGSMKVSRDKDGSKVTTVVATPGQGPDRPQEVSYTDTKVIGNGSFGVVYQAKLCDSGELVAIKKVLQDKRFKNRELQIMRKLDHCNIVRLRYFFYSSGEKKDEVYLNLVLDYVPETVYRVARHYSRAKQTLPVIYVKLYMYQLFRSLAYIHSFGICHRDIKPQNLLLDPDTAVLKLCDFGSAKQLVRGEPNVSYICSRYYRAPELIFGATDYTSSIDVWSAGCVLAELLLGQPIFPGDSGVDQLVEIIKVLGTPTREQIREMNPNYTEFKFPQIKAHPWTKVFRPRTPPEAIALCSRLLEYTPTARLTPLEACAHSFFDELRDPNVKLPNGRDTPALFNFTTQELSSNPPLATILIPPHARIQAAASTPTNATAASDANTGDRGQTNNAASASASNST

EC50 (GSK-3β): 860 nM
melting point: 109.5 to 111 °C
SMILES: CCOc1c(OC)cc2c3c1Oc1cc4c(cc1OC)CCN(C)C4Cc1ccc(cc1)Oc1cc(ccc1OC)CC3N(C)CC2 (stereo not shown) [Compound 3, 7-ethoxy fangchinoline]
Sucrose solution preference ([1]; 7.5 mg/kg intragastric daily): 82.3 ± 3.3^##,$$ %
Sucrose solution preference ([1]; 15 mg/kg intragastric daily): 93.6 ± 4.6^##,$$ %
Sucrose solution preference ([1]; 30 mg/kg intragastric daily): 98.1 ± 3.7^##,$$ %
Autonomous movement Distance ([2]; 7.5 mg/kg intragastric daily): 13612.65 ± 792.22^##,$$ mm
Autonomous movement Speed ([2]; 7.5 mg/kg intragastric daily): 45.38 ± 2.64^##,$$ mm/second
Autonomous movement Distance ([2]; 15 mg/kg intragastric daily): 14409.83 ± 664.54^##,$$ mm
Autonomous movement Speed ([2]; 15 mg/kg intragastric daily): 48.03 ± 4.02^##,$$ mm/second
Autonomous movement Distance ([2]; 30 mg/kg intragastric daily): 14636.14 ± 812.31^##,$$ mm
Autonomous movement Speed ([2]; 30 mg/kg intragastric daily): 48.78 ± 5.36^##,$$ mm/second
Percentage of entries into open arms relative to total entries into arms ([3]; 7.5 mg/kg intragastric daily): 57.2 ± 1.8^##,$$ %
Percentage of residence time in open arms ([3]; 7.5 mg/kg intragastric daily): 69.1 ± 2.4^##,$$ %
Percentage of entries into open arms relative to total entries into arms ([3]; 15 mg/kg intragastric daily): 59.7 ± 2.2^##,$$ %
Percentage of residence time in open arms ([3]; 15 mg/kg intragastric daily): 72.3 ± 3.6^##,$$ %
Percentage of entries into open arms relative to total entries into arms ([3]; 30 mg/kg intragastric daily): 60.2 ± 2.0^##,$$ %
Percentage of residence time in open arms ([3]; 30 mg/kg intragastric daily): 71.8 ± 3.2^##,$$ %
effect on the sleep disturbance ([4]; 30 mg/kg p.o.): evident amelioration effect
Deep sleep (SWS) Time [4, 8]: 39.31 ± 10.22 min
NREM sleep Time [4, 8]: 174.44 ± 8.35 min
Rapid eye movement (REM) sleep Time [4, 8]: 37.95 ± 6.28 min
Total sleep Time [4, 8]: 212.40 ± 12.65 min
Deep sleep (SWS) Time ([4]; Day 21, 30 mg/kg p.o.): 48.18 ± 13.77 min
NREM sleep Time ([4]; Day 21, 30 mg/kg p.o.): 165.27 ± 7.97 min
Rapid eye movement (REM) sleep Time ([4]; Day 21, 30 mg/kg p.o.): 34.06 ± 1.75 min
Total sleep Time ([4]; Day 21, 30 mg/kg p.o.): 199.33 ± 9.11 min
p-GSK-3β level ([5]; 30 mg/kg intragastric, 1 h, hypothalamus, versus blank control): evidently increased
influence on phosphorylated GSK-3β (p-GSK-3β) and total-GSK-3β ([5]; 30 mg/kg intragastric, 1 h, prefrontal lobe cortex, hipocampus and corpus striatum): no evident influence
total GSK-3β level ([5]; 60 mg/kg intragastric, 1 h, four brain sections): no influence
p-GSK-3β level ([5]; 60 mg/kg intragastric, 1 h, prefrontal lobe cortex, hipocampus, corpus striatum and hypothalamus): significantly increased
enhancement of GSK-3β phosphorylation level with pMPPI given intraperitoneally 15 minutes before ([5]; FIG. 3, prefrontal lobe cortex, hipocampus, corpus striatum and hypothalamus, n=6): could evidently inhibit
enhancement of GSK-3β phosphorylation level with 5-HT2A receptor agonist DOI ([5]; FIG. 5, prefrontal lobe cortex, hipocampus, corpus striatum and hypothalamus, n=6): inhibited
anti-depression effect with 5-HT1A receptor antagonist pMPPI ([6]; FIG. 2, n=12-15): could be inhibited
reduction of immobility time and extension of immobility latency period with 5-HT2A receptor agonist DOI ([6]; FIG. 4, n=12-15): could be inhibited
ALT [7]: 82.1 ± 16.4 U/L
AST [7]: 102.3 ± 14.5 U/L
AST/ALT [7]: 1.25 ± 0.18
